Test [1] concerns yeast cells. In words: Evaluation of the reversibility of polyphenol adsorption. Type of test: binding, Saccharomyces cerevisiae. Conditions: pellets re-suspended in model wine without polyphenols, 24 h; FIG. 7b. The procedure:
The yeast pellets obtained by centrifugation after adsorption above were re-suspended in 2 ml of a model wine without polyphenols. Samples were stirred for 24 h and the supernatants recovered. The adsorption reversibility was evaluated through the quantity of polyphenols recovered in supernatants.

Test [2] concerns yeast cells. Put plainly: Adsorption isotherms: polyphenols adsorbed by yeast. The following applies: 24 h contact in model wine, 10^8 cells/mL, A280 of supernatant; FIG. 7a. Type of test: binding, Saccharomyces cerevisiae. The procedure:
A contact time of 24 h was chosen for adsorption experiments. A stock solution of polyphenols with a molecular weight below 620 Da was prepared by dissolving catechin powder in a model wine at a concentration of 10 g/L. A stock solution of polyphenols with a molecular weight above 620 Da was prepared by dissolving grape skin tannins with a DPm of 20 in a model wine at a concentration of 10 g/L
Dilutions of both stock solutions were performed to get a final concentration range between 0.01 and 5 g/L. All sorption experiments were carried out by mixing equal volumes of a 2×g·L^−1 polyphenol solution (x being the final desired polyphenol concentration) and of a 2·10^8 cells/mL suspension (final concentration 10^8 cells/mL). Samples (2 ml) were placed in a 2 mL tightly closed Eppendorf in order to minimize headspace and were stirred continuously (Stuart rotator SB3, 40 rpm) in absence of light and at room temperature. […] The total polyphenol concentrations in the bulk were determined by absorbency measurements at 280 nm after adequate dilution. Total encapsulated polyphenol with a molecular weight below 620 Da and total encapsulated polyphenols with a molecular weight above 620 Da were calculated from the difference in absorbency between the samples and the corresponding controls using: […]

Regarding catechin, the “reversibility of interactions between yeast and adsorbed polyphenols” value in the test on yeast cells [1] was “fully reversible”. For the same substance, in the test on yeast cells [2], the “amounts of polyphenols adsorbed by yeast, compared with DPm 20” value is on record as “about 10 times lower”.

The record behind these values is patent US20250263644A1, “COMPOSITIONS COMPRISING YEAST CELLS AND POLYPHENOLS AND THEIR USE” (INSTITUT NATIONAL D'ETUDES SUPERIEURES AGRONOMIQUES DE …, priority 2015, published 2025).
